# From patent US11795204B2 (Zealand Pharma A/S, priority 2012, dated 2023)
# pEC50: −log10 of the molar value. Square brackets hold non-standard residues; d marks the D form. Peptide text beside a SMILES is read from it. Aib = CC(C)(N)C(=O)O
# Experiments:
# [1] = Solubility assessment (turbidity absorbance at 325 nm); settings: pH 7.5
# Procedure, shortened: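 Peptide stock 2 mg/ml (A280-quantified) in water at pH 2.5, diluted 1:1 into 100 mM acetate pH 4.0 or 100 mM phosphate pH 7.5. Absorbance at 280 and 325 nm read at ambient temperature, single samples (n=1).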
# [2] = Assessment of physical stability (Thioflavin T fibril formation lag-time); format: physicochemical; settings: 1 mg/ml, 50 mM phosphate pH 7.5, 40° C., 96 hours
# Description: A solution containing 1 mg/ml of peptide, 40 μM ThT and 50 mM phosphate buffer, pH 7.5, was loaded in a 96-well black fluorescence plate (clear bottom) in triplicate. Data were collected at fixed intervals of 10 min, each preceded by 300 s of automixing (agitation), over a period of 96 hours at 40° C. The entire experiment was repeated, but without agitation. Physical stability, expressed as lag-time of fibril formation (in hours), was defined as the intersection between two linear regressions representing the initial stable phase and the growth phase.
# [3] = Chemical stability assessment (RP-HPLC normalized purity); format: physicochemical; settings: for Normalized purity pH 4.0 after 14 days: 1 mg/ml in 50 mM acetate buffer pH 4.0, 40° C.; for Normalized purity pH 7.5 after 14 days: 1 mg/ml in 50 mM phosphate buffer pH 7.5, 40° C.
# Description: Samples were placed in glass vials and incubated at 40° C. The samples were analysed by reverse-phase HPLC on a C18 column with gradient elution using an acetonitrile/trifluoroacetic acid/water eluent system. The area-percentage (area-%) of the main peak after incubation time T=t (relative to time T=0) was detected by UV spectrometry at 220 nm. The purity was first determined as follows: Purity(area-%)=(area of main peak/total area of all peaks)×100. […] Normalized purity values in Table 2 were determined after 14 days of incubation.
# human Glucagon-R = target: T1, human Glucagon-R (Homo sapiens, UniProt P47871); experiment: Glucagon receptor assay (cAMP induction, AlphaScreen); format: cell-based; settings: HEK293 cells expressing the human Glucagon-R, 15 min at 37° C., read-out: GCG-R EC50 in vitro
# T1 construct: expressed in transfected cells
# Procedure, shortened: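 Stable G418-selected clonal cells expressing the receptor were washed, then exposed to rising test peptide concentrations in IBMX-containing assay buffer for 15 min at 37° C. After lysis (≥10 min, room temperature), lysate was incubated 1 h with AlphaScreen donor/acceptor beads and cAMP content read.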
# T1 sequence (P47871 26-477): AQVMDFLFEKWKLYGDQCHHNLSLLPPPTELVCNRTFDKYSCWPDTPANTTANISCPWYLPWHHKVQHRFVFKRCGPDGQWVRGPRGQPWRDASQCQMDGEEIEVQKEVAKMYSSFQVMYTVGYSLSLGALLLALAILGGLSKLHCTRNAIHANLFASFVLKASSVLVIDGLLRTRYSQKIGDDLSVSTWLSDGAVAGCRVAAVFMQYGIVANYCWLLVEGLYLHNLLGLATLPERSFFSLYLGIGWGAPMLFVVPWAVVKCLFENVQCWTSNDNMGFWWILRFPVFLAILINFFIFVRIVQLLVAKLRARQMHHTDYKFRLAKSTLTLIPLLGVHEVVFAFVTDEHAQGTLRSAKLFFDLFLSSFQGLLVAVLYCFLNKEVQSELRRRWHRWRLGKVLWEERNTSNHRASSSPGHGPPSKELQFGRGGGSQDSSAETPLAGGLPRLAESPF
Compound,solubility ([1]; phosphate buffer) [µg/mL],Physical Stability at pH 7.5 (agitated) ([2]; with agitation),Physical Stability at pH 7.5 (non-agitated) ([2]; without agitation),Normalized purity pH 4.0 after 14 days [3] [%],Normalized purity pH 7.5 after 14 days [3] [%],pEC50 (human Glucagon-R),solubility [1] [µg/mL]
CC(C)C[C@H](NC(=O)[C@H](Cc1c[nH]c2ccccc12)NC(=O)[C@H](CCCCN)NC(=O)[C@@H](NC(=O)[C@H](Cc1ccccc1)NC(=O)[C@H](CCC(=O)O)NC(=O)[C@H](CCC(=O)O)NC(=O)[C@H](C)NC(=O)[C@H](CCCNC(=N)N)NC(=O)[C@H](C)NC(=O)C(C)(C)NC(=O)[C@H](CC(=O)O)NC(=O)[C@H](CC(C)C)NC(=O)[C@H](Cc1ccc(O)cc1)NC(=O)[C@H](CCCCN)NC(=O)[C@H](CO)NC(=O)[C@H](Cc1ccc(O)cc1)NC(=O)[C@H](CC(=O)O)NC(=O)[C@H](CO)NC(=O)[C@@H](NC(=O)[C@H](Cc1ccccc1)NC(=O)[C@@H](NC(=O)CNC(=O)[C@H](CCC(N)=O)NC(=O)[C@H](CO)NC(=O)[C@@H](N)Cc1c[nH]cn1)[C@@H](C)O)[C@@H](C)O)C(C)C)C(=O)N[C@@H](CCC(=O)O)C(=O)N[C@@H](CO)C(=O)N[C@H](C(=O)O)[C@@H](C)O [Compound 21],≥ 1000,FND,FND,89.8,93.5,–,–
CC(C)C[C@H](NC(=O)[C@H](Cc1c[nH]c2ccccc12)NC(=O)[C@H](CCC(=O)O)NC(=O)[C@@H](NC(=O)[C@H](Cc1ccccc1)NC(=O)[C@H](CO)NC(=O)[C@H](CCCCN)NC(=O)[C@H](C)NC(=O)[C@H](CCCNC(=N)N)NC(=O)[C@H](C)NC(=O)C(C)(C)NC(=O)[C@H](CC(=O)O)NC(=O)[C@H](CC(C)C)NC(=O)[C@H](Cc1ccc(O)cc1)NC(=O)[C@H](CCCCN)NC(=O)[C@H](CO)NC(=O)[C@H](Cc1ccc(O)cc1)NC(=O)[C@H](CC(=O)O)NC(=O)[C@H](CO)NC(=O)[C@@H](NC(=O)[C@H](Cc1ccccc1)NC(=O)[C@@H](NC(=O)CNC(=O)[C@H](CCC(N)=O)NC(=O)[C@H](CO)NC(=O)[C@@H](N)Cc1c[nH]cn1)[C@@H](C)O)[C@@H](C)O)C(C)C)C(=O)N[C@@H](CCC(=O)O)C(=O)N[C@@H](CCCCN)C(=O)N[C@H](C(=O)O)[C@@H](C)O [Compound 29] (H-HSQGTFTSDYSKYLD[Aib]ARAKSFVEWLEKT-OH),–,–,–,91,91.6,10.64,≥ 1000
H-HSQGTFTSDYSKYLDSARAEDFVAWLEST-OH [Compound 4],–,–,–,80.5,84.6,9.47,≥ 1000
H-HSQGTFTSDLSKYLDSARAEDFVKWLEST-OH [Compound 11],–,–,–,78.6,89.9,9.96,≥ 1000
